We go through one molecule from PMC3319082 (Bioorganic & medicinal chemistry letters, 2011).

Structures are written as SMILES.

For this assay, the target named is rat mGlu4 (Rattus norvegicus, UniProt P31423). The class given is cell-based. Conditions: rat mGlu4/GIRK cells, Fig. 2.
Sequence of rat mGlu4 (P31423 33-912): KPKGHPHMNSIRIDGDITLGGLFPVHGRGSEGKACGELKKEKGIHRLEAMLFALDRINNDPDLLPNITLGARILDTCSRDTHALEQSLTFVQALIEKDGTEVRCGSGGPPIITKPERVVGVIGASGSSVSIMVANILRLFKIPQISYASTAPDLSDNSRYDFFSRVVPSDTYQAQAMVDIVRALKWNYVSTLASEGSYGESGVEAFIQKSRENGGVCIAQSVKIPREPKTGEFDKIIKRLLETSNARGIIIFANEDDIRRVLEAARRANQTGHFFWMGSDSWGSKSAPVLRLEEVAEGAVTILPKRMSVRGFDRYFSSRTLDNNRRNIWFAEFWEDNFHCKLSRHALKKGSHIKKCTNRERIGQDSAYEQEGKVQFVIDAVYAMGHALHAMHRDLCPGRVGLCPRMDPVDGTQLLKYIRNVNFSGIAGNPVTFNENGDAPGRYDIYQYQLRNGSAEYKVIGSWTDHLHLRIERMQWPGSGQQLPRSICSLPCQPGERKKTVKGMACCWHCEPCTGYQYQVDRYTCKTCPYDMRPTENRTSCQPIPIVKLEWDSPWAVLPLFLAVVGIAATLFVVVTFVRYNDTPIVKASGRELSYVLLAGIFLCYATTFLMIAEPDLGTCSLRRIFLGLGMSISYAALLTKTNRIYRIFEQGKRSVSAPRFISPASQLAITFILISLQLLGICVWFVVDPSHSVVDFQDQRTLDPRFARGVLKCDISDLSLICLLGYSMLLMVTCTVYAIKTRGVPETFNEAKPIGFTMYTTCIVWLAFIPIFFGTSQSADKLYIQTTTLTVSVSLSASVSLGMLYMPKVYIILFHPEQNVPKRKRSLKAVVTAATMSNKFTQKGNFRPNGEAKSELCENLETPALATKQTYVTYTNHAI

For `O=C(COc1ccccc1Br)c1ccc(Cl)nc1` [2e], the “Antagonist activity in rat mGlu4 thallium flux assay” value is given as “confirmed to be active”.
